From the supplement of paper PMC6045584
± gives the standard deviation of the averaged measurements.

Key:
GEFITINIB = compound: COc1cc2ncnc(Nc3ccc(F)c(Cl)c3)c2cc1OCCCN1CCOCC1 [GEFITINIB]; experiment: surviving fraction relative to DMSO-only wells; higher = less growth inhibition; conditions: exposure time: 5 days
Procedure, shortened: (§1)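 Viability values are CellTiter-Glo luminescence readings, given as surviving fraction against the median of DMSO-only wells. The readings were taken after 10 minutes at room temperature, following five days of continuous exposure to inhibitors at 0.5, 1, 5, 10, 50, 100, 500 and 1000 nM that began 24 hours after log-phase tumour cell lines were seeded at 250–500 cells per well in 384-well plates. Every line was screened three times and kept only if replicate Pearson r >0.7 and median Z' >0.3.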

YM155 = compound: COCC[n+]1c2c(n(Cc3cnccn3)c1C)C(=O)c1ccccc1C2=O [YM155]; experiment: as above; conditions: exposure time: 5 days
Procedure, shortened: as §1

Test System | surviving fraction (GEFITINIB; 0.5 nM) | surviving fraction (GEFITINIB; 1 nM) | surviving fraction (GEFITINIB; 5 nM) | surviving fraction (GEFITINIB; 10 nM) | surviving fraction (GEFITINIB; 50 nM) | surviving fraction (GEFITINIB; 100 nM) | surviving fraction (GEFITINIB; 500 nM) | surviving fraction (GEFITINIB; 1000 nM) | surviving fraction (YM155; 0.5 nM) | surviving fraction (YM155; 1 nM) | surviving fraction (YM155; 5 nM) | surviving fraction (YM155; 10 nM) | surviving fraction (YM155; 50 nM) | surviving fraction (YM155; 100 nM) | surviving fraction (YM155; 500 nM) | surviving fraction (YM155; 1000 nM)
MHM BONE | 1.01 ± 0.046 | 1.02 ± 0.038 | 1.06 ± 0.051 | 1.05 ± 0.051 | 1.03 ± 0.012 | 1.026 ± 0.01 | 0.9993 ± 0.0096 | 0.972 ± 0.013 | 0.972 ± 0.013 | 0.998 ± 0.021 | 1.01 ± 0.011 | 1.05 ± 0.016 | 0.299 ± 0.013 | 0.202 ± 0.0085 | 0.0287 ± 0.0011 | 0.0323 ± 0.00058
PCI30 HEADNECK | 0.996 ± 0.063 | 1.01 ± 0.051 | 1.071 ± 0.0044 | 1.12 ± 0.017 | 0.959 ± 0.095 | 0.842 ± 0.028 | 0.466 ± 0.026 | 0.393 ± 0.033 | 0.933 ± 0.064 | 0.84 ± 0.075 | 0.793 ± 0.021 | 0.491 ± 0.017 | 0.04 ± 0.0027 | 0.024 ± 0.0017 | 0.021 ± 0.0017 | 0.0233 ± 0.00058
SG27 HEADNECK | 1.11 ± 0.041 | 1.1 ± 0.074 | 1.03 ± 0.037 | 1.16 ± 0.12 | 1.14 ± 0.13 | 1.12 ± 0.13 | 1.09 ± 0.024 | 1.11 ± 0.016 | 1.13 ± 0.13 | 1.05 ± 0.092 | 0.813 ± 0.13 | 0.575 ± 0.066 | 0.105 ± 0.035 | 0.0347 ± 0.0038 | 0.0367 ± 0.02 | 0.048 ± 0.017
BT20 BREAST | 1.14 ± 0.02 | 1.19 ± 0.063 | 1.13 ± 0.11 | 1.15 ± 0.043 | 1.06 ± 0.011 | 1.06 ± 0.013 | 1.05 ± 0.04 | 0.984 ± 0.085 | 0.907 ± 0.077 | 0.875 ± 0.089 | 0.0757 ± 0.0075 | 0.0613 ± 0.006 | 0.028 ± 0.0017 | 0.025 ± 0.0027 | 0.019 ± 0.002 | 0.027 ± 0.002
143B BONE | 1.07 ± 0.023 | 1.08 ± 0.075 | 1.11 ± 0.084 | 1.1 ± 0.033 | 1.14 ± 0.077 | 1.12 ± 0.054 | 1.14 ± 0.11 | 1.13 ± 0.15 | 0.89 ± 0.082 | 0.987 ± 0.027 | 0.431 | 0.246 ± 0.042 | 0.0735 ± 0.0064 | 0.0375 ± 0.0021 | 0.022 ± 0.0014 | 0.0265 ± 0.00071
HCC202 BREAST | 1.4 ± 0.62 | 1.2 ± 0.23 | 1.35 ± 0.21 | 1.06 ± 0.14 | 1.32 ± 0.14 | 1.11 ± 0.37 | 0.542 ± 0.13 | 0.345 ± 0.013 | 1.19 ± 0.025 | 1.13 ± 0.014 | 1.34 ± 0.26 | 1.31 ± 0.22 | 0.411 ± 0.17 | 0.231 ± 0.037 | 0.0315 ± 0.00071 | 0.0335 ± 0.0021
MDAMB436 BREAST | 1.02 ± 0.091 | 1.01 ± 0.06 | 0.994 ± 0.026 | 1.09 ± 0.098 | 0.993 ± 0.12 | 1.03 ± 0.084 | 1.08 ± 0.098 | 1.08 ± 0.1 | 0.932 ± 0.065 | 0.929 ± 0.14 | 0.744 ± 0.13 | 0.556 ± 0.099 | 0.195 ± 0.05 | 0.115 ± 0.031 | 0.0377 ± 0.0074 | 0.0453 ± 0.013
HMLE3 BREAST | 1.11 ± 0.075 | 1.03 ± 0.016 | 1.07 ± 0.016 | 1.08 ± 0.031 | 1.04 ± 0.051 | 0.963 ± 0.07 | 0.904 ± 0.1 | 0.843 ± 0.083 | 0.974 ± 0.062 | 1.06 ± 0.15 | 0.425 ± 0.072 | 0.129 ± 0.02 | 0.0257 ± 0.00058 | 0.0227 ± 0.00058 | 0.018 ± 0.001 | 0.0213 ± 0.00058
22RV1 PROSTATE | 1 ± 0.023 | 0.984 ± 0.18 | 0.979 ± 0.085 | 1 ± 0.058 | 0.987 ± 0.18 | 1.03 ± 0.15 | 1.04 ± 0.17 | 1.03 ± 0.12 | 1.12 ± 0.21 | 1.05 ± 0.097 | 0.703 ± 0.16 | 0.679 ± 0.13 | 0.151 ± 0.16 | 0.165 ± 0.23 | 0.101 ± 0.14 | 0.121 ± 0.16
SUM149 BREAST | 1.16 ± 0.077 | 1.15 ± 0.098 | 1.08 ± 0.052 | 1.15 ± 0.12 | 0.926 ± 0.016 | 0.8 ± 0.026 | 0.487 ± 0.04 | 0.448 ± 0.076 | 0.87 ± 0.17 | 1.07 ± 0.061 | 0.81 ± 0.064 | 0.445 ± 0.093 | 0.044 ± 0.001 | 0.0257 ± 0.0035 | 0.0203 ± 0.0032 | 0.023 ± 0.0036
G292 BONE | 0.976 ± 0.023 | 1.03 ± 0.045 | 1.04 ± 0.035 | 1.059 ± 0.0083 | 1.03 ± 0.052 | 1.04 ± 0.04 | 0.954 ± 0.038 | 0.9402 ± 0.0094 | 0.967 ± 0.04 | 1 ± 0.047 | 0.654 ± 0.024 | 0.528 ± 0.037 | 0.251 ± 0.0065 | 0.194 ± 0.007 | 0.0688 ± 0.0042 | 0.0473 ± 0.0024
LNCAP PROSTATE | 1.1 ± 0.22 | 0.915 ± 0.067 | 0.9827 ± 0.0059 | 0.998 ± 0.043 | 0.939 ± 0.032 | 0.947 ± 0.03 | 1.03 ± 0.08 | 0.947 ± 0.12 | 0.92 ± 0.085 | 0.943 ± 0.033 | 0.87 ± 0.097 | 0.978 ± 0.1 | 0.227 ± 0.032 | 0.069 ± 0.0044 | 0.0267 ± 0.0055 | 0.0267 ± 0.0015
CME SYNOVIAL | 1.32 ± 0.14 | 1.3 ± 0.036 | 1.4 ± 0.12 | 1.44 ± 0.17 | 1.39 ± 0.12 | 1.41 ± 0.17 | 1.28 ± 0.096 | 1.18 ± 0.047 | 0.752 ± 0.12 | 0.95 ± 0.22 | 0.468 ± 0.037 | 0.254 ± 0.049 | 0.232 ± 0.023 | 0.206 ± 0.0035 | 0.189 ± 0.0055 | 0.27 ± 0.029
HCC38 BREAST | 1.05 ± 0.086 | 1.33 ± 0.089 | 1.25 ± 0.17 | 1.24 ± 0.1 | 1.23 ± 0.13 | 1.29 ± 0.03 | 1.1 ± 0.096 | 1.18 ± 0.053 | 1.28 ± 0.18 | 1.27 ± 0.12 | 0.346 ± 0.013 | 0.243 ± 0.015 | 0.043 ± 0.0056 | 0.031 ± 0.002 | 0.0247 ± 0.0021 | 0.0297 ± 0.0011
SAOS2 BONE | 1.11 ± 0.021 | 1.04 ± 0.065 | 1.21 ± 0.035 | 1.09 ± 0.05 | 1.12 ± 0.061 | 1.13 ± 0.06 | 1.01 ± 0.038 | 0.907 ± 0.08 | 1.16 ± 0.021 | 1.1 ± 0.097 | 0.39 ± 0.035 | 0.237 ± 0.0095 | 0.053 ± 0.0069 | 0.0327 ± 0.006 | 0.0223 ± 0.00058 | 0.0293 ± 0.00058
HS578T BREAST | 0.972 ± 0.039 | 0.906 ± 0.078 | 0.965 ± 0.095 | 0.878 ± 0.12 | 0.996 ± 0.13 | 0.819 ± 0.075 | 1.07 ± 0.1 | 0.899 ± 0.23 | 1.03 ± 0.14 | 1.06 ± 0.19 | 0.993 ± 0.19 | 1.06 ± 0.082 | 0.739 ± 0.18 | 0.809 ± 0.066 | 0.274 ± 0.067 | 0.154 ± 0.027
MDAMB231 BREAST | 0.989 ± 0.026 | 0.987 ± 0.026 | 1.02 ± 0.02 | 1.03 ± 0.024 | 1.06 ± 0.027 | 1.06 ± 0.037 | 1.06 ± 0.018 | 1.04 ± 0.037 | 0.91 ± 0.0095 | 0.903 ± 0.024 | 0.112 ± 0.002 | 0.0683 ± 0.0035 | 0.0386 ± 0.0022 | 0.0352 ± 0.002 | 0.0302 ± 0.00043 | 0.0372 ± 0.0043
